Measured values: patent US20230263786A1, “MODULATION OF DRUG-DRUG INTERACTIONS OF VADADUSTAT” (Akebia Therapeutics, Inc., priority 2020, published 2023)
Like-named read-outs stand apart in the source and are kept apart here.

Legend:
[1] = Phase I calcium acetate interaction study; format: in vivo, human; details: for AUC(0-t) / Cmax / Tmax / AUC(0-inf) / clearance / half-life / Vd: human, plasma, oral; for Tmax: median; for clearance: read-out: Clearance (ClB) (converted); for half-life: read-out: Elimination half-life (t1/2) (converted); for Vd: read-out: Volume of distribution (Vc)
Description: A phase I, open-label, fixed-sequence study was conducted in healthy adult subjects to assess the effect of 1) a single oral dose of calcium acetate on the pharmacokinetics of a single oral dose of vadadustat.
The study included screening (28 days maximum), 9-day treatment period, and a 14-day follow-up period post last dose.
Pharmacokinetics. A predose PK blood sample was collected on Day 1. After each dose of vadadustat administered (Days 1, 3, 5, and 7), blood samples for PK analysis were collected at the following time points: predose and 0.5, 1, 1.5, 2, 3, 4, 6, 9, 12, 16, 24, and 48 hours after each dose of vadadustat. The 48-hour postdose sample was collected before vadadustat administration on Days 3, 5, and 7. The following parameters were calculated and analyzed: AUC0-∞, AUC0-last, Cmax, Tmax, Kel, CIB, Vc/F, and t1/2.
Subjects were dosed approximately at the same designated time on each dosing day, where applicable. Study drugs were administered with approximately 8 ounces (240 mL) of water at room temperature in a seated position. Subjects were instructed to drink the full 8 ounces of water, and not to chew or break the tablets/gelcaps.
The 9-day treatment period was conducted as follows: • Day 1: vadadustat administered immediately after consuming breakfast. • Day 2: wash-out (no investigational product administration). • Day 3: vadadustat administered concomitantly with the requisite phosphate binder immediately after consuming breakfast. • Day 4: wash-out (no investigational product administration). • Day 5: vadadustat administered in fasted condition and the phosphate binder administered 1 hour later (breakfast must be served within 2 minutes after phosphate binder administration and consumed immediately after it is served). • Day 6: wash-out (no investigational product administration). • Day 7: phosphate binder administered immediately after consuming breakfast; vadadustat administered 2 hours after the phosphate binder was administered. • Day 8: wash-out (no investigational product administration). • Day 9: subjects discharged from the Clinical Research Unit (CRU) after the 48-hour postdose PK blood sample has been collected.
A single oral dose of vadadustat 300 mg (2×150 mg tablets) was administered on Days 1, 3, 5, and 7. Phosphate binder that is calcium acetate (1334 mg, 2×667 mg gelcaps) was administered on Days 3, 5, and 7.

CYP2C8 = target: T1, CYP2C8 (Homo sapiens, UniProt P10632); test: CYP2C8 inhibition in vitro; format: in vitro ADME
T1 sequence (P10632 1-490): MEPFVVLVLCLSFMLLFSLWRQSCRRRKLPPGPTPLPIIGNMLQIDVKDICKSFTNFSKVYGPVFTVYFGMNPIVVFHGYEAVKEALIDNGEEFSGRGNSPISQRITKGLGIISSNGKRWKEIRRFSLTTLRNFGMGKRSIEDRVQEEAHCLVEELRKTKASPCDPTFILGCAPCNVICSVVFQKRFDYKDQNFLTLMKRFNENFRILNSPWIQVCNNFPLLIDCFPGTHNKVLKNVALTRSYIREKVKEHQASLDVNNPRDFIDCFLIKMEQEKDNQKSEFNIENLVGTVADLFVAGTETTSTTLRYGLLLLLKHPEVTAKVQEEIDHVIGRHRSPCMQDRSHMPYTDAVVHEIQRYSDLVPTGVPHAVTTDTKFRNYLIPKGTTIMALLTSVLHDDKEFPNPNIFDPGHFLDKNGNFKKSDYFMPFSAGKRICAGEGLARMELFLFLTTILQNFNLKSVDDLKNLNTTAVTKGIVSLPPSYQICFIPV

[2] = concomitant administration of phosphate binder, ANOVA
[3] = 300 mg, Concomitant administration with calcium acetate 1334 mg after breakfast
[4] = 300 mg, Vadadustat 300 mg alone, immediately after breakfast
[5] = 300 mg, Vadadustat administered 1 hour prior to calcium acetate, fasting
[6] = 300 mg, Vadadustat administered 2 hours after calcium acetate

With `O=C(O)CNC(=O)c1ncc(-c2cccc(Cl)c2)cc1O` [Compound 1, {[5-(3-chlorophenyl)-3-hydroxypyridine-2-carbonyl]amino}acetic acid] the “reduction of AUC0-last and AUC0-∞” value [1, 2] was “about 55%”, the “reduction of Cmax” value [1, 2] was “about 51%” and the AUC(0-t) [1, 3] was 77.4 ± 31.7 µg·h/mL. For the same molecule, the Cmax [1, 3] was 11300 ± 4390 ng/mL, the Tmax [1, 3] was 4 h and the AUC(0-inf) ([1]; 300 mg, Concomitant administration with calcium acetate 1334 mg after breakfast, read-out: AUC0-∞) was 79.6 ± 32.7 µg·h/mL. For the same molecule, the clearance [1, 3] was 77.3 mL/min, the half-life [1, 3] was 4.58 ± 0.9 h and the Vd [1, 3] was 29.8 ± 14.6 L. For the same molecule, the AUC(0-t) [1, 4] was 163 ± 45.7 µg·h/mL, the Cmax [1, 4] was 21900 ± 5610 ng/mL and the Tmax [1, 4] was 3.93 h. The AUC(0-inf) ([1]; 300 mg, Vadadustat 300 mg alone, immediately after breakfast, read-out: AUC0-∞) was 166 ± 45.4 µg·h/mL, the clearance [1, 4] was 31.8 mL/min and the half-life [1, 4] was 4.75 ± 1.2 h. The Vd [1, 4] was 12.6 ± 2.41 L, the AUC(0-t) [1, 5] was 130 ± 36.2 µg·h/mL and the Cmax [1, 5] was 25000 ± 9560 ng/mL. The Tmax [1, 5] was 1.44 h, the AUC(0-inf) ([1]; 300 mg, Vadadustat administered 1 hour prior to calcium acetate, fasting, read-out: AUC0-∞) was 133 ± 36.8 µg·h/mL and the clearance [1, 5] was 40.3 mL/min. The half-life [1, 5] was 4.47 ± 0.75 h, the Vd [1, 5] was 15.3 ± 3.25 L and the AUC(0-t) [1, 6] was 132 ± 44.3 µg·h/mL. For the same molecule, the Cmax [1, 6] was 24600 ± 7130 ng/mL, the Tmax [1, 6] was 2.97 h and the AUC(0-inf) ([1]; 300 mg, Vadadustat administered 2 hours after calcium acetate, read-out: AUC0-∞) was 135 ± 44.3 µg·h/mL. It also gave a clearance [1, 6] of 42.2 mL/min, a half-life [1, 6] of 4.84 ± 1.03 h and a Vd [1, 6] of 17.8 ± 9.99 L. For the same molecule, the AUC(0-inf) ([1]; vadadustat administered concurrently with calcium acetate, read-out: geometric LS mean AUC0-∞) was 72.4 µg·h/mL, the “changes in vadadustat exposure” value ([1]; vadadustat administered 1 hour prior to calcium acetate) was “within the prespecified no-effect boundaries of 80% to 125%” and the “changes in vadadustat exposure” value ([1]; vadadustat administered 2 hours after calcium acetate) was “within the prespecified no-effect boundaries of 80% to 125%”. For the same molecule, the “inhibitory effect on CYP2C8” value (CYP2C8) was “inhibitory effect”.
